Assay results from ChEMBL document CHEMBL1157460, “Enhanced concentration-dependent cytotoxic effect of the dinuclear copper(II) complex of L-carnitine [Cu2(L-carnitine)2Cl2(H2O)2]Cl2, compared to L-carnitine or copper chloride dihydrate, in human leukemic cell lines” (2008).

Tests used:
HL-60 [1] = experiment: Cytotoxicity against human HL60 cells assessed as necrosis at 2.5 uM after 48 hrs by trypan blue staining; type: functional
HL-60 [2] = experiment: Cytotoxicity against human HL60 cells assessed as necrosis at 5 uM after 24 hrs by trypan blue staining; type: functional
K562 [3] = experiment: Cytotoxicity against human K562 cells assessed as necrosis at 5 uM after 24 hrs by trypan blue staining; type: functional
HL-60 [4] = experiment: Cytotoxicity against human HL60 cells assessed as necrosis at 10 uM after 48 hrs by trypan blue staining; type: functional
K562 [5] = experiment: Cytotoxicity against human K562 cells assessed as necrosis at 1.25 uM after 72 hrs by trypan blue staining; type: functional
HL-60 [6] = experiment: Cytotoxicity against human HL60 cells assessed as necrosis at 1.25 uM after 24 hrs by trypan blue staining; type: functional
HL-60 [7] = experiment: Cytotoxicity against human HL60 cells assessed as necrosis at 2.5 uM after 72 hrs by trypan blue staining; type: functional
HL-60 [8] = experiment: Cytotoxicity against human HL60 cells assessed as necrosis at 5 uM after 48 hrs by trypan blue staining; type: functional
K562 [9] = experiment: Cytotoxicity against human K562 cells assessed as necrosis at 5 uM after 48 hrs by trypan blue staining; type: functional
K562 [10] = experiment: Cytotoxicity against human K562 cells assessed as necrosis at 10 uM after 24 hrs by trypan blue staining; type: functional
K562 [11] = experiment: Cytotoxicity against human K562 cells assessed as necrosis at 2.5 uM after 24 hrs by trypan blue staining; type: functional
HL-60 [12] = experiment: Cytotoxicity against human HL60 cells assessed as necrosis at 1.25 uM after 72 hrs by trypan blue staining; type: functional
K562 [13] = experiment: Cytotoxicity against human K562 cells assessed as necrosis at 2.5 uM after 72 hrs by trypan blue staining; type: functional
HL-60 [14] = experiment: Cytotoxicity against human HL60 cells assessed as necrosis at 2.5 uM after 24 hrs by trypan blue staining; type: functional
K562 [15] = experiment: Cytotoxicity against human K562 cells assessed as necrosis at 10 uM after 72 hrs by trypan blue staining; type: functional
K562 [16] = experiment: Cytotoxicity against human K562 cells assessed as cell viability at >=5 uM after 24 hrs by MTT assay; type: functional, cell-based
K562 [17] = experiment: Cytotoxicity against human K562 cells assessed as necrosis at 2.5 uM after 48 hrs by trypan blue staining; type: functional
K562 [18] = experiment: Cytotoxicity against human K562 cells assessed as necrosis at 10 uM after 48 hrs by trypan blue staining; type: functional
HL-60 [19] = experiment: Cytotoxicity against human HL60 cells assessed as necrosis at 1.25 uM after 48 hrs by trypan blue staining; type: functional
HL-60 [20] = experiment: Cytotoxicity against human HL60 cells assessed as necrosis at 5 uM after 72 hrs by trypan blue staining; type: functional
HL-60 [21] = experiment: Cytotoxicity against human HL60 cells assessed as necrosis at 10 uM after 24 hrs by trypan blue staining; type: functional
HL-60 [22] = experiment: Cytotoxicity against human HL60 cells assessed as necrosis at 10 uM after 72 hrs by trypan blue staining; type: functional
K562 [23] = experiment: Cytotoxicity against human K562 cells assessed as necrosis at 1.25 uM after 48 hrs by trypan blue staining; type: functional
K562 [24] = experiment: Cytotoxicity against human K562 cells assessed as necrosis at 1.25 uM after 24 hrs by trypan blue staining; type: functional
K562 [25] = experiment: Cytotoxicity against human K562 cells assessed as necrosis at 5 uM after 72 hrs by trypan blue staining; type: functional
K562 [26] = experiment: Cytotoxicity against human K562 cells assessed as cell viability at <=2.5 uM by MTT assay; type: functional, cell-based; conditions: TDE = time-dependent effect
HL-60 [27] = experiment: Cytotoxicity against human HL60 cells assessed as cell viability at <=2.5 uM by MTT assay; type: functional, cell-based; conditions: TDE = time-dependent effect
HL-60 [28] = experiment: Cytotoxicity against human HL60 cells assessed as cell viability at >=5 uM after 24 hrs by MTT assay; type: functional, cell-based

Row | Compound | Activity (HL-60 [1]) [%] | Activity (HL-60 [2]) [%] | Activity (K562 [3]) [%] | Activity (HL-60 [4]) [%] | Activity (K562 [5]) [%] | Activity (HL-60 [6]) [%] | Activity (HL-60 [7]) [%] | Activity (HL-60 [8]) [%] | Activity (K562 [9]) [%] | Activity (K562 [10]) [%] | Activity (K562 [11]) [%] | Activity (HL-60 [12]) [%] | Activity (K562 [13]) [%] | Activity (HL-60 [14]) [%] | Activity (K562 [15]) [%] | Activity (K562 [17]) [%] | Activity (K562 [18]) [%] | Activity (HL-60 [19]) [%] | Activity (HL-60 [20]) [%] | Activity (HL-60 [21]) [%] | further results
1 | C[N+](C)(C)C[C@H](O)CC(=O)[O-] [LEVOCARNITINE] | 7.8 | 1.8 | 0 | 9.7 | 4.7 | 1.4 | 28.4 | 9.2 | 8.9 | 2.4 | 2.4 | 13.6 | 4.7 | 0 | 11.8 | 0 | 11.1 | 5.3 | 25.6 | 1.7 | Activity (K562 [16]; TDE = time-dependent effect): tde; Activity (HL-60 [22]): 30%; Activity (K562 [23]): 2.5%; Activity (K562 [24]): 0%; Activity (K562 [25]): 14.3%; Activity (K562 [26]): tde; Activity (HL-60 [27]): tde; Activity (HL-60 [28]; TDE = time-dependent effect): tde
2 | CUPRIC CHLORIDE | 6.8 | 86.2 | 87.5 | 100 | 3 | 1.4 | 22.6 | 100 | 100 | 100 | 5.1 | 26.5 | 7.5 | 1.5 | 100 | 10.8 | 100 | 10.8 | 100 | 100 | Activity (K562 [16]): 0%; Activity (HL-60 [22]): 100%; Activity (K562 [23]): 4.9%; Activity (K562 [24]): 16.3%; Activity (K562 [25]): 100%; Activity (K562 [26]): tde; Activity (HL-60 [27]): tde; Activity (HL-60 [28]): 0%
